Results as given in patent US20260078133.
Like-named read-outs stand apart in the source and are kept apart here.

Settings: ester bond, 18-membered ring, DCM

## CCn1c(-c2cccnc2[C@H](C)OC)c2c3cc(ccc31)N1CCO[C@@H](C[C@H](NC(=O)OC(C)(C)C)C(=O)N3N[C@H](C(=O)OCC(C)(C)C2)C2CC3C2)C1
From CCn1c(-c2cccnc2[C@H](C)OC)c(CC(C)(C)CO)c2cc(N3CCO[C@@H](C[C@H](NC(=O)OC(C)(C)C)C(=O)N4N[C@H](C(=O)O)C5CC4C5)C3)ccc21, PyBOP/DMAP, 2.6 mM, 16.0 h
  ring closure, isolated yield: 96.2%

## CCn1c(-c2cc(N3CCN(C)CC3)cnc2[C@H](C)OC)c2c3cc(ccc31)-c1csc(n1)C[C@H](NC(=O)OC(C)(C)C)C(=O)N(C)NCC(=O)OCC(C)(C)C2
From CCn1c(-c2cc(N3CCN(C)CC3)cnc2[C@H](C)OC)c(CC(C)(C)CO)c2cc(-c3csc(C[C@H](NC(=O)OC(C)(C)C)C(=O)N(C)NCC(=O)O)n3)ccc21, PyBOP/DMAP, 0.8 mM, 0.0 °C, 1.0 h
  ring closure, isolated yield: 42%

## CCn1c(-c2cc(N3CCN(C4CC4)CC3)cnc2[C@H](C)OC)c2c3cc(ccc31)-c1csc(n1)C[C@H](NC(=O)OC(C)(C)C)C(=O)N(C)NCC(=O)OCC(C)(C)C2
From CCn1c(-c2cc(N3CCN(C4CC4)CC3)cnc2[C@H](C)OC)c(CC(C)(C)CO)c2cc(-c3csc(C[C@H](NC(=O)OC(C)(C)C)C(=O)N(C)NCC(=O)O)n3)ccc21, PyBOP/DMAP, 5.9 mM, 0.0 °C, 1.0 h
  ring closure, isolated yield: 27%

## C=C[C@@H]1CCN2N[C@@H]1C(=O)OCC(C)(C)Cc1c(-c3cc(N4CCN(C(=O)OCc5ccccc5)CC4)cnc3[C@H](C)OC)n(CC)c3ccc(cc13)-c1csc(n1)C[C@H](NC(=O)OC(C)(C)C)C2=O
From C=C[C@@H]1CCN(C(=O)[C@H](Cc2nc(-c3ccc4c(c3)c(CC(C)(C)CO)c(-c3cc(N5CCN(C(=O)OCc6ccccc6)CC5)cnc3[C@H](C)OC)n4CC)cs2)NC(=O)OC(C)(C)C)N[C@@H]1C(=O)O, EDCI/HOBT/DIEA, 10.0 mM, 16.0 h
  ring closure, isolated yield: 36.7%

## CCn1c(-c2cc(N3CCN(C)CC3)cnc2[C@H](C)OC)c2c3cc(ccc31)-c1csc(n1)C[C@H](NC(=O)OC(C)(C)C)C(=O)N1N[C@H](C(=O)OCC(C)(C)C2)C2CC1C2
From CCn1c(-c2cc(N3CCN(C)CC3)cnc2[C@H](C)OC)c(CC(C)(C)CO)c2cc(-c3csc(C[C@H](NC(=O)OC(C)(C)C)C(=O)N4N[C@H](C(=O)O)C5CC4C5)n3)ccc21, PyBOP/DMAP, 5.7 mM, 5.0 h
  ring closure, isolated yield: 48.8%

## tert-butyl ((1^2S,12S)-2^1-ethyl-2^2-(2-((S)-1-methoxyethyl)pyridin-3-yl)-4,4,10-trimethyl-7,11-dioxo-2^1H-6-oxa-9,10-diaza-1(4,2)-morpholina-2(5,3)-indolacyclotridecaphane-12-yl)carbamate
EDCI/HOBT/DIEA, 6.5 mM
  ring closure, isolated yield: 44%

## CCn1c(-c2cc(N3CCN(C(=O)OCc4ccccc4)CC3)cnc2[C@H](C)OC)c2c3cc(ccc31)N1CCO[C@@H](C[C@H](NC(=O)OC(C)(C)C)C(=O)N3N[C@H](C(=O)OCC(C)(C)C2)C2CC3C2)C1
From CCn1c(-c2cc(N3CCN(C(=O)OCc4ccccc4)CC3)cnc2[C@H](C)OC)c(CC(C)(C)CO)c2cc(N3CCO[C@@H](C[C@H](NC(=O)OC(C)(C)C)C(=O)N4N[C@H](C(=O)O)C5CC4C5)C3)ccc21, PyBOP/DMAP, 9.8 mM, 35.0 °C, 0.5 h
  ring closure, isolated yield: 16%

## CCn1c(-c2cc(N3CCN(C(=O)OCc4ccccc4)CC3)cnc2[C@H](C)OC)c2c3cc(ccc31)-c1csc(n1)C[C@H](NC(=O)OC(C)(C)C)C(=O)N1N[C@@H](C(=O)OCC(C)(C)C2)C2CC1C2
From CCn1c(-c2cc(N3CCN(C(=O)OCc4ccccc4)CC3)cnc2[C@H](C)OC)c(CC(C)(C)CO)c2cc(-c3csc(C[C@H](NC(=O)OC(C)(C)C)C(=O)N4N[C@@H](C(=O)O)C5CC4C5)n3)ccc21, EDCI/HOBT/DIEA, 5.2 mM, 35.0 °C, 16.0 h
  ring closure, isolated yield: 49%

## benzyl-4-(5-((64S,4S)-4-((tert-butoxycarbonyl) amino)-11-ethyl-10,10-dimethyl-5,7-dioxo-11H-8-oxa-62,63-diaza-1 (5,3)-indola-6(2,4)-bicyclo[3.1.1]heptana-2(1,3)-benzenacycloundecaphane-12-yl)-6-((S)-1-methoxyethyl)pyridin-3-yl)piperazine-1-carboxylate
EDCI/HOBT/DIEA, 6.0 mM
  ring closure, isolated yield: 27%

## CCn1c(-c2cc(N3CCN(C4CC4)CC3)cnc2[C@H](C)OC)c2c3cc(ccc31)-c1nnc(o1)C[C@H](NC(=O)OCc1ccccc1)C(=O)N1N[C@H](C(=O)OCC(C)(C)C2)C2CC1C2
From CCn1c(-c2cc(N3CCN(C4CC4)CC3)cnc2[C@H](C)OC)c(CC(C)(C)CO)c2cc(-c3nnc(C[C@H](NC(=O)OCc4ccccc4)C(=O)N4N[C@H](C(=O)O)C5CC4C5)o3)ccc21, PyBOP/DMAP, 6.6 mM, 16.0 h, 2 steps
  ring closure, isolated yield: 29%

## CCn1c(-c2cc(N3CCN(C(=O)OCc4ccccc4)CC3)cnc2[C@H](C)OC)c2c3cc(ccc31)-c1csc(n1)C[C@H](NC(=O)OC(C)(C)C)C(=O)N(C)NCC(=O)OCC(C)(C)C2
From CCn1c(-c2cc(N3CCN(C(=O)OCc4ccccc4)CC3)cnc2[C@H](C)OC)c(CC(C)(C)CO)c2cc(-c3csc(C[C@H](NC(=O)OC(C)(C)C)C(=O)N(C)NCC(=O)O)n3)ccc21, EDCI/HOBT/DIEA, 4.3 mM, 16.0 h
  ring closure, isolated yield: 38.2%
